The target of this assay is T1, AR (Homo sapiens, UniProt P10275).
T1 construct: endogenous in cells; host or cells: VCaP cells
T1 sequence (P10275 1-920): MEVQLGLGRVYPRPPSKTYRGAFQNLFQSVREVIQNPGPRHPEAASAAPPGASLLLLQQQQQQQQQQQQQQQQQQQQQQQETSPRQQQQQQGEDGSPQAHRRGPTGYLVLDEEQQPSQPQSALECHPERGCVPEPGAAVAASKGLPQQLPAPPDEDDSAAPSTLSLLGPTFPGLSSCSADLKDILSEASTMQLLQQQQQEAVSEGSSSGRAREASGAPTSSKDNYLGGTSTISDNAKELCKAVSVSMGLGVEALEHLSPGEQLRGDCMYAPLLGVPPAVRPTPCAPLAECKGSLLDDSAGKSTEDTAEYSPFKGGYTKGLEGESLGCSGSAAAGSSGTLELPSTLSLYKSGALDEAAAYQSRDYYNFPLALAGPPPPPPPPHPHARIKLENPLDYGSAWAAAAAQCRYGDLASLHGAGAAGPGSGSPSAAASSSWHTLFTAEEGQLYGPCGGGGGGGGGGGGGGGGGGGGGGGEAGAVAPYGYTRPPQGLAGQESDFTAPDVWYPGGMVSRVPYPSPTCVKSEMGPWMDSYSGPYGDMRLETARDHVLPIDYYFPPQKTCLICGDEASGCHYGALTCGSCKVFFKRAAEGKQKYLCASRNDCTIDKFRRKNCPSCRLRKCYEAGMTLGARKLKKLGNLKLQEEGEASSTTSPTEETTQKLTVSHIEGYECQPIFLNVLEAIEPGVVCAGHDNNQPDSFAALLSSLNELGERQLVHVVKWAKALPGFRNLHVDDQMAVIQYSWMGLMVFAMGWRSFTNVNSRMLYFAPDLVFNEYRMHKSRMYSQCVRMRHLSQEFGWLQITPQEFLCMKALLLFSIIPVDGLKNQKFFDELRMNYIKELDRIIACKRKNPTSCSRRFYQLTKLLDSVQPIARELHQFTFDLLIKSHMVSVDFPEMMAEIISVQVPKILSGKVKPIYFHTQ
The experiment in a line: VCAP AR Degradation Assay. The format is cell-based. The following applies: for Y (AR degradation efficiency, % of DMSO control): class symbols *; for DC50: class symbols A-C, read-out: DC50. The gist of the method: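 VCaP cells treated 24 h at 37 °C with a 10-point 1:3 series (top 5 μM final; 0.1% DMSO control). Lysate AR measured by sandwich ELISA, normalized to DMSO as percent of control; DC50, EC50 and lowest AR level (Y) from four-parameter logistic fit.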

Some results are limits rather than exact numbers.

Regarding `CCc1cc(N2C(=S)N(c3ccc(C#N)c(C(F)(F)F)c3)C(=O)C2(C)C)ccc1OCCN1C[C@@H](C)N(CC(=O)Nc2cc(C#N)cc(NC3CCC(=O)NC3=O)c2)[C@@H](C)C1` (stereo partly drawn) [Example 186, 2-((2S,6R)-4-(2-(4-(3-(4-cyano-3-(trifluoromethyl)phenyl)-5,5-dimethyl-4-oxo-2-thioxoimidazolidin-1-yl)-2-ethylphenoxy)ethyl)-2,6-dimethylpiperazin-1-yl)-N-(3-cyano-5-(2,6-dioxopiperidin-3-ylamino)phenyl)acetamide], the “Y (AR degradation efficiency, % of DMSO control)” value was “* (0<Y<=25%)” and the DC50 is less than 100 nM.

Take `CCc1cc(N2C(=S)N(c3ccc(C#N)c(C(F)(F)F)c3)C(=O)C2(C)C)cnc1OCCN1CCN(CC(=O)Nc2cccc(NC3CCC(=O)NC3=O)c2)[C@H](C)C1` (stereo partly drawn) [Example 187, 2-((R)-4-(2-(5-(3-(4-cyano-3-(trifluoromethyl)phenyl)-5,5-dimethyl-4-oxo-2-thioxoimidazolidin-1-yl)-3-ethylpyridin-2-yloxy)ethyl)-2-methylpiperazin-1-yl)-N-(3-(2,6-dioxopiperidin-3-ylamino)phenyl)acetamide]: the “Y (AR degradation efficiency, % of DMSO control)” value is “* (0<Y<=25%)” and the DC50 is less than 100 nM.

Regarding `CCc1cc(N2C(=S)N(c3cnc(C#N)c(C(F)(F)F)c3)C(=O)C23CCC3)ccc1OCCN1CCN(C2(C(=O)Nc3cccc(NC4CCC(=O)NC4=O)c3)CC2)CC1` (stereo not shown) [Example 188, 1-(4-(2-(4-(7-(6-cyano-5-(trifluoromethyl)pyridin-3-yl)-8-oxo-6-thioxo-5,7-diazaspiro[3.4]octan-5-yl)-2-ethylphenoxy)ethyl)piperazin-1-yl)-N-(3-(2,6-dioxopiperidin-3-ylamino)phenyl)cyclopropanecarboxamide], the “Y (AR degradation efficiency, % of DMSO control)” value was “* (0<Y<=25%)” and the DC50 was less than 100 nM.

Turning to `CCc1cc(N2C(=S)N(c3ccc(C#N)c(C(F)(F)F)c3)C(=O)C2(C)C)cnc1OCCN1C[C@@H](C)N(CC(=O)Nc2cc(Cl)cc(NC3CCC(=O)NC3=O)c2)C[C@H]1C` (stereo partly drawn) [Example 189, N-(3-chloro-5-(2,6-dioxopiperidin-3-ylamino)phenyl)-2-((2R,5R)-4-(2-(5-(3-(4-cyano-3-(trifluoromethyl)phenyl)-5,5-dimethyl-4-oxo-2-thioxoimidazolidin-1-yl)-3-ethylpyridin-2-yloxy)ethyl)-2,5-dimethylpiperazin-1-yl)acetamide], the “Y (AR degradation efficiency, % of DMSO control)” value is listed as “* (0<Y<=25%)” and the DC50 was less than 100 nM.

As for `CCc1cc(N2C(=S)N(c3cnc(C#N)c(C(F)(F)F)c3)C(=O)C23CCC3)ccc1OCCN1C[C@@H](C)N(CC(=O)Nc2cc(NC3CCC(=O)NC3=O)ccc2F)[C@@H](C)C1` (stereo partly drawn) [Example 190, 2-((2S,6R)-4-(2-(4-(7-(6-cyano-5-(trifluoromethyl)pyridin-3-yl)-8-oxo-6-thioxo-5,7-diazaspiro[3.4]octan-5-yl)-2-ethylphenoxy)ethyl)-2,6-dimethylpiperazin-1-yl)-N-(5-(2,6-dioxopiperidin-3-ylamino)-2-fluorophenyl)acetamide], the “Y (AR degradation efficiency, % of DMSO control)” value is on record as “* (0<Y<=25%)” and the half-maximal degradation concentration (DC50) was less than 100 nM.

On to `CCc1cc(N2C(=S)N(c3cnc(C#N)c(C(F)(F)F)c3)C(=O)C2(C)C)ccc1OCCN1CCN([C@H](C)C(=O)Nc2cc(Cl)cc(NC3CCC(=O)NC3=O)c2)CC1` (stereo partly drawn) [Example 191, (2R)-N-(3-chloro-5-(2,6-dioxopiperidin-3-ylamino)phenyl)-2-(4-(2-(4-(3-(6-cyano-5-(trifluoromethyl)pyridin-3-yl)-5,5-dimethyl-4-oxo-2-thioxoimidazolidin-1-yl)-2-ethylphenoxy)ethyl)piperazin-1-yl)propanamide], for which the “Y (AR degradation efficiency, % of DMSO control)” value is given as “* (0<Y<=25%)” and the DC50 was less than 100 nM.

`CC(C)c1cc(N2C(=S)N(c3cnc(C#N)c(C(F)(F)F)c3)C(=O)C2(C)C)ccc1OCCN1C[C@@H](C)N(CC(=O)Nc2cccc(NC3CCC(=O)NC3=O)c2)C[C@H]1C` (stereo partly drawn) [Example 192, 2-((2R,5R)-4-(2-(4-(3-(6-cyano-5-(trifluoromethyl)pyridin-3-yl)-5,5-dimethyl-4-oxo-2-thioxoimidazolidin-1-yl)-2-isopropylphenoxy)ethyl)-2,5-dimethylpiperazin-1-yl)-N-(3-(2,6-dioxopiperidin-3-ylamino)phenyl)acetamide]: the “Y (AR degradation efficiency, % of DMSO control)” value is “** (25%<Y<=35%)” and the DC50 fell in the range of 100 to 500 nM.

Regarding `CC(C)c1cc(N2C(=S)N(c3ccc(C#N)c(C(F)(F)F)c3)C(=O)C2(C)C)ccc1OCCN1C[C@@H](C)N(CC(=O)Nc2cccc(NC3CCC(=O)NC3=O)c2)C[C@H]1C` (stereo partly drawn) [Example 193, 2-((2R,5R)-4-(2-(4-(3-(4-cyano-3-(trifluoromethyl)phenyl)-5,5-dimethyl-4-oxo-2-thioxoimidazolidin-1-yl)-2-isopropylphenoxy)ethyl)-2,5-dimethylpiperazin-1-yl)-N-(3-(2,6-dioxopiperidin-3-ylamino)phenyl)acetamide], the “Y (AR degradation efficiency, % of DMSO control)” value is recorded as “** (25%<Y<=35%)” and the DC50 fell in the range of 100 to 500 nM.

In the case of `CC(C)c1cc(N2C(=S)N(c3ccc(C#N)c(C(F)(F)F)c3)C(=O)C2(C)C)ccc1OCCN1C[C@@H](C)N(CC(=O)Nc2cc(C#N)cc(NC3CCC(=O)NC3=O)c2)[C@@H](C)C1` (stereo partly drawn) [Example 194, 2-((2S,6R)-4-(2-(4-(3-(4-cyano-3-(trifluoromethyl)phenyl)-5,5-dimethyl-4-oxo-2-thioxoimidazolidin-1-yl)-2-isopropylphenoxy)ethyl)-2,6-dimethylpiperazin-1-yl)-N-(3-cyano-5-(2,6-dioxopiperidin-3-ylamino)phenyl)acetamide], the “Y (AR degradation efficiency, % of DMSO control)” value is “* (0<Y<=25%)” and the DC50 is less than 100 nM.

With `CC(C)c1cc(N2C(=S)N(c3cnc(C#N)c(C(F)(F)F)c3)C(=O)C23CCC3)ccc1OCCN1C[C@@H](C)N(CC(=O)Nc2cc(Cl)cc(NC3CCC(=O)NC3=O)c2)[C@@H](C)C1` (stereo partly drawn) [Example 195, N-(3-chloro-5-(2,6-dioxopiperidin-3-ylamino)phenyl)-2-((2S,6R)-4-(2-(4-(7-(6-cyano-5-(trifluoromethyl)pyridin-3-yl)-8-oxo-6-thioxo-5,7-diazaspiro[3.4]octan-5-yl)-2-isopropylphenoxy)ethyl)-2,6-dimethylpiperazin-1-yl)acetamide], the “Y (AR degradation efficiency, % of DMSO control)” value was “* (0<Y<=25%)” and the DC50 is less than 100 nM.

With `C[C@@H]1CN(CCOc2ccc(N3C(=S)N(c4cnc(C#N)c(C(F)(F)F)c4)C(=O)C34CCC4)cc2C2CC2)C[C@H](C)N1CC(=O)Nc1cccc(NC2CCC(=O)NC2=O)c1` (stereo partly drawn) [Example 196, 2-((2S,6R)-4-(2-(4-(7-(6-cyano-5-(trifluoromethyl)pyridin-3-yl)-8-oxo-6-thioxo-5,7-diazaspiro[3.4]octan-5-yl)-2-cyclopropylphenoxy)ethyl)-2,6-dimethylpiperazin-1-yl)-N-(3-(2,6-dioxopiperidin-3-ylamino)phenyl)acetamide], the “Y (AR degradation efficiency, % of DMSO control)” value is recorded as “* (0<Y<=25%)” and the DC50 is less than 100 nM.

For the compound `CC(C)c1cc(N2C(=S)N(c3ccc(C#N)c(C(F)(F)F)c3)C(=O)C2(C)C)ccc1OCCN1CCN(C2(C(=O)Nc3cccc(NC4CCC(=O)NC4=O)c3)CC2)CC1` (stereo not shown) [Example 197], the “Y (AR degradation efficiency, % of DMSO control)” value was “*** (35%<Y<50%)” and the DC50 lay in the range of 100 to 500 nM.

Regarding `C[C@@H]1CN(CCOc2ccc(N3C(=S)N(c4cnc(C#N)c(C(F)(F)F)c4)C(=O)C34CCC4)cc2C2CC2)C[C@H](C)N1CC(=O)Nc1cc(NC2CCC(=O)NC2=O)ccc1F` (stereo partly drawn) [Example 198, 2-((2S,6R)-4-(2-(4-(7-(6-cyano-5-(trifluoromethyl)pyridin-3-yl)-8-oxo-6-thioxo-5,7-diazaspiro[3.4]octan-5-yl)-2-cyclopropylphenoxy)ethyl)-2,6-dimethylpiperazin-1-yl)-N-(5-(2,6-dioxopiperidin-3-ylamino)-2-fluorophenyl)acetamide], the “Y (AR degradation efficiency, % of DMSO control)” value was “* (0<Y<=25%)” and the DC50 was less than 100 nM.

As to `CCc1cc(N2C(=S)N(c3ccc(C#N)c(C(F)(F)F)c3)C(=O)C2(C)C)ccc1OCCN1CCN([C@H](C)C(=O)Nc2cccc(NC3CCC(=O)NC3=O)c2)CC1` (stereo partly drawn) [Example 199, (2R)-2-(4-(2-(4-(3-(4-cyano-3-(trifluoromethyl)phenyl)-5,5-dimethyl-4-oxo-2-thioxoimidazolidin-1-yl)-2-ethylphenoxy)ethyl)piperazin-1-yl)-N-(3-(2,6-dioxopiperidin-3-ylamino)phenyl)propanamide], the “Y (AR degradation efficiency, % of DMSO control)” value is given as “** (25%<Y<=35%)” and the DC50 was less than 100 nM.

In general, DC50 refers to the midpoint of the concentration-degradation curve.

These data come from patent US12404241B2 (Celgene Corporation, priority 2018, dated 2025).
